The assay deals with 616215-338-R-J1-PDC complex spheroid viability. As to the kind of experiment: Anticancer human tumor 616215-338-R-J1-PDC patient-derived colon adenocarcinoma cell line growth inhibition [RAS]. The following applies: for viability, T/C: stronger effect = lower value. The procedure, abridged:
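Agents were tested in combination matrices in half-log decrements from a top concentration at or near clinical Cmax (10 microM if undetermined). Targets were multi-cell spheroids of tumour lines plus HUVEC and MSC stromal cells.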

SMILES strings stand for the structures. Where “and” joins values, the source holds several entries; their conditions need not be identical. Identical values can stand only once. A value given as a limit tells only on which side of the number the result lay.
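Further: spheroids exposed to agents for seven days before viability readout.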
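Wherever viability, T/C is given: 100% = DMSO vehicle control viability.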

One may read the IC50 as the concentration at which inhibition is half-maximal. Broadly, the viability, T/C is the ratio of treated to control. `Cc1nc(N2CCC3(CC2)COC(C)C3N)c(CO)nc1Sc1ccnc(N)c1Cl` (stereo unspecified) + CCn1c(-c2cccnc2C(C)OC)c2c3cc(ccc31)N1CCOC(CC(NC(=O)C(C(C)C)N(C)C(=O)C3(F)CCN(C(=O)C#CC(C)(C)N(C)C)CC3)C(=O)N3CCCC(N3)C(=O)OCC(C)(C)C2)C1: the IC50 was greater than 10 µM (curve of first compound, second compound 0.000949 µM); greater than 10 µM (curve of first compound, second compound 0.003 µM); greater than 10 µM (curve of first compound, second compound 0.00949 µM); greater than 10 µM (curve of first compound, second compound 0.03 µM); greater than 10 µM (curve of first compound, second compound 0.0949 µM); 7.52 µM (curve of first compound, second compound 0.3 µM). The viability, T/C by setting is: (second compound 0.000949 µM, first compound 0.0316 µM) 112%; (second compound 0.000949 µM, first compound 0.1 µM) 106%; (second compound 0.000949 µM, first compound 0.316 µM) 117%; (second compound 0.000949 µM, first compound 1 µM) 96.8%; (second compound 0.000949 µM, first compound 3.16 µM) 80.1%; (second compound 0.000949 µM, first compound 10 µM) 72.3%. In addition, the viability, T/C (second compound 0.003 µM, first compound 0.0316 µM) is 110%; the viability, T/C (second compound 0.003 µM, first compound 0.1 µM) was 112%; the viability, T/C (second compound 0.003 µM, first compound 0.316 µM) is 103%; the viability, T/C (second compound 0.003 µM, first compound 1 µM) was 92.6%; the viability, T/C (second compound 0.003 µM, first compound 3.16 µM) was 79.6%; the viability, T/C (second compound 0.003 µM, first compound 10 µM) is 69.6%. In addition, the viability, T/C (second compound 0.00949 µM, first compound 0.0316 µM) was 113%; the viability, T/C (second compound 0.00949 µM, first compound 0.1 µM) is 108%; the viability, T/C (second compound 0.00949 µM, first compound 0.316 µM) was 111%; the viability, T/C (second compound 0.00949 µM, first compound 1 µM) is 93.3%; the viability, T/C (second compound 0.00949 µM, first compound 3.16 µM) was 92.6%; the viability, T/C (second compound 0.00949 µM, first compound 10 µM) is 62.8%. The viability, T/C (second compound 0.03 µM, first compound 0.0316 µM) is 116%; the viability, T/C (second compound 0.03 µM, first compound 0.1 µM) is 114%; the viability, T/C (second compound 0.03 µM, first compound 0.316 µM) is 101%; the viability, T/C (second compound 0.03 µM, first compound 1 µM) was 97.8%; the viability, T/C (second compound 0.03 µM, first compound 3.16 µM) is 86.1%; the viability, T/C (second compound 0.03 µM, first compound 10 µM) is 59.1%. Further, the viability, T/C reads like this: (second compound 0.0949 µM, first compound 0.0316 µM) 117%; (second compound 0.0949 µM, first compound 0.1 µM) 120%; (second compound 0.0949 µM, first compound 0.316 µM) 96.8%; (second compound 0.0949 µM, first compound 1 µM) 74.2%; (second compound 0.0949 µM, first compound 3.16 µM) 62.5%; (second compound 0.0949 µM, first compound 10 µM) 53.8%. The viability, T/C is 102% (second compound 0.3 µM, first compound 0.0316 µM); 84% (second compound 0.3 µM, first compound 0.1 µM); 77% (second compound 0.3 µM, first compound 0.316 µM); 68.3% (second compound 0.3 µM, first compound 1 µM); 52.6% (second compound 0.3 µM, first compound 3.16 µM); 49.2% (second compound 0.3 µM, first compound 10 µM).
For the compound `CC(=O)OC12COC1CC(O)C1(C)C(=O)C(O)C3=C(C)C(OC(=O)C(O)C(NC(=O)OC(C)(C)C)c4ccccc4)CC(O)(C(OC(=O)c4ccccc4)C21)C3(C)C` (stereo unspecified), the viability, T/C by setting is: (compound 0.0316 µM) 27.8% [middle of 4 runs]; (compound 0.1 µM) 21% [middle of 4 runs]; (compound 0.316 µM) 19.1% (2×) and 21.2% and 18.8%; (compound 1 µM) 21.3% [middle of 4 runs]; (compound 3.16 µM) 22.3% [middle of 4 runs]; (compound 10 µM) 28.5% [middle of 4 runs]. For the same compound, the IC50 (curve of compound) is less than 0.0316 µM.
On to `CCc1c2c(nc3ccc(O)cc13)-c1cc3c(c(=O)n1C2)COC(=O)[C@]3(O)CC`, for which the viability, T/C runs as follows: (compound 0.000949 µM) 104% [middle of 4 runs]; (compound 0.003 µM) 105% [middle of 4 runs]; (compound 0.03 µM) 37.2% [middle of 4 runs]; (compound 0.0949 µM) 24.3% [middle of 4 runs]; (compound 0.3 µM) 16.9% [middle of 4 runs].
Regarding `Cc1nc(N2CCC3(CC2)COC(C)C3N)c(CO)nc1Sc1ccnc(N)c1Cl` (stereo unspecified) + C=CC(=O)N1CCN(c2nc(OCC3CCCN3C)nc3c(F)c(-c4nc(N)cc(C)c4C(F)(F)F)c(Cl)cc23)C(C)C1, the IC50 was greater than 10 µM (curve of first compound, second compound 0.00316 µM); greater than 10 µM (curve of first compound, second compound 0.01 µM); greater than 10 µM (curve of first compound, second compound 0.0316 µM); greater than 10 µM (curve of first compound, second compound 0.1 µM); greater than 10 µM (curve of first compound, second compound 0.316 µM); greater than 10 µM (curve of first compound, second compound 1 µM). In addition, the viability, T/C is 93.3% (second compound 0.00316 µM, first compound 0.0316 µM); 101% (second compound 0.00316 µM, first compound 0.1 µM); 125% (second compound 0.00316 µM, first compound 0.316 µM); 95.6% (second compound 0.00316 µM, first compound 1 µM); 98.1% (second compound 0.00316 µM, first compound 3.16 µM); 84.7% (second compound 0.00316 µM, first compound 10 µM). In addition, the viability, T/C (second compound 0.01 µM, first compound 0.0316 µM) is 114%; the viability, T/C (second compound 0.01 µM, first compound 0.1 µM) was 111%; the viability, T/C (second compound 0.01 µM, first compound 0.316 µM) is 110%; the viability, T/C (second compound 0.01 µM, first compound 1 µM) is 110%; the viability, T/C (second compound 0.01 µM, first compound 3.16 µM) was 90.2%; the viability, T/C (second compound 0.01 µM, first compound 10 µM) is 83.7%. The viability, T/C is 107% (second compound 0.0316 µM, first compound 0.0316 µM); 110% (second compound 0.0316 µM, first compound 0.1 µM); 114% (second compound 0.0316 µM, first compound 0.316 µM); 99.3% (second compound 0.0316 µM, first compound 1 µM); 109% (second compound 0.0316 µM, first compound 3.16 µM); 80.6% (second compound 0.0316 µM, first compound 10 µM). Also, the viability, T/C was 98.7% (second compound 0.1 µM, first compound 0.0316 µM); 113% (second compound 0.1 µM, first compound 0.1 µM); 115% (second compound 0.1 µM, first compound 0.316 µM); 119% (second compound 0.1 µM, first compound 1 µM); 97.3% (second compound 0.1 µM, first compound 3.16 µM); 83.2% (second compound 0.1 µM, first compound 10 µM). For the same compound, the viability, T/C (second compound 0.316 µM, first compound 0.0316 µM) is 105%; the viability, T/C (second compound 0.316 µM, first compound 0.1 µM) is 99%; the viability, T/C (second compound 0.316 µM, first compound 0.316 µM) was 129%; the viability, T/C (second compound 0.316 µM, first compound 1 µM) was 102%; the viability, T/C (second compound 0.316 µM, first compound 3.16 µM) was 106%; the viability, T/C (second compound 0.316 µM, first compound 10 µM) is 73%. The viability, T/C reads like this: (second compound 1 µM, first compound 0.0316 µM) 97.7%; (second compound 1 µM, first compound 0.1 µM) 110%; (second compound 1 µM, first compound 0.316 µM) 99.7%; (second compound 1 µM, first compound 1 µM) 109%; (second compound 1 µM, first compound 3.16 µM) 89.4%; (second compound 1 µM, first compound 10 µM) 75.4%.

The values are drawn from PubChem BioAssay AID2060898 (Molecular Pharmacology Branch, DTP, NCI, 2025).
